In ChEMBL document CHEMBL1201862, “PubChem BioAssay data set” (2004):
Calls of active or inactive are those of the source.

Legend:
[1] = biological target: Mothers against decapentaplegic homolog 3 (Homo sapiens, UniProt P84022); assay: blockers of Smad3 complex formation in lysate – cell lysate, secondary confirmation, chemiluminescent ELISA, HEK293 lysate, dose response (AID 1058); type: functional
[2] = biological target: Polyadenylate-binding protein 1 (Homo sapiens, UniProt P11940); assay: blockers of PABP interaction with poly(A) – biochemical, fluorescence polarization, […] (AID 2014)
[3] = biological target: Eukaryotic translation initiation factor 4H (Homo sapiens, UniProt Q15056); assay: eIF4H binding inhibition – biochemical, uHTS, fluorescence polarization, translation initiation inhibitor project, primary screen (AID 2012)
[4] = test system: Salmon testes DNA; assay: acridine orange-DNA binding displacement – biochemical, fluorescence polarization, cherry-picked samples, set 2, artefact control for KSHV LANA DNA-binding inhibitor project, dose response (AID 504727); parameters: species or system Salmonidae
[5] = biological target: T1, Estrogen receptor (Homo sapiens, UniProt P03372); assay: blockers of SRC-3 recruitment to ERα – biochemical, ELISA, streptavidin-HRP readout, orthogonal assay, confirmation (AID 1079)
T1 sequence (P03372 whole entry): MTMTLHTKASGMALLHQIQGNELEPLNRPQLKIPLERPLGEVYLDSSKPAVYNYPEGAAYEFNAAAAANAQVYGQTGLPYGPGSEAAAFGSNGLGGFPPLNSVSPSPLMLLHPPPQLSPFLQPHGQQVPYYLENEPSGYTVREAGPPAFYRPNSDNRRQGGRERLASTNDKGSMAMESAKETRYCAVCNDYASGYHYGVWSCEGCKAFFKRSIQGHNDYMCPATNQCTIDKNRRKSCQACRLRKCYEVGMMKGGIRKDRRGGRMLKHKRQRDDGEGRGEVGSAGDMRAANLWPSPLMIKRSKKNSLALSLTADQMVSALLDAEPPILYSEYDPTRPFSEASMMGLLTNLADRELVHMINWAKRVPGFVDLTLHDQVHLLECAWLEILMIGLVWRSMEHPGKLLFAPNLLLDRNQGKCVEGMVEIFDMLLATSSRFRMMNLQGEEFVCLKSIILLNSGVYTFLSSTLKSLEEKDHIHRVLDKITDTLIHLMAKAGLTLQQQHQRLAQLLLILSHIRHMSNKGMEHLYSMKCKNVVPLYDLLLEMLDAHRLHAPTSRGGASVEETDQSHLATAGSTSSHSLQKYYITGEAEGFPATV

[6] = biological target: Neuropeptide Y receptor type 2 (Homo sapiens, UniProt P49146); assay: Fluorescence-based counterscreen for agonists of NPY-Y1: cell-based high-throughput dose response assay for agonists of NPY-Y2.; type: functional
[7] = biological target: Neuropeptide Y receptor type 1 (Homo sapiens, UniProt P25929); assay: Fluorescence-based dose response cell-based high-throughput screening assay for agonists of NPY-Y1. [Related pubchem assays: 1697 (Screening assay (NPY-Y1 agonists).), 1359 (Screening assay (NPY-Y2 potentiators or agonists).), 1304 (Screening assay (NPY-Y1 potentiators or agonists).), 1704 (Screening assay (CNGC inhibitors).), 1791 (Summary AID.)]; type: functional
[8] = test system: HEK293; assay: Fluorescence-based counterscreen for potentiators or agonists of NPY-Y1: cell-based high-throughput dose response assay for inhibitors of cyclic nucleotide gated ion channel (CNGC) activity. In this assay, the parental HEK293 cell line transfected with a cyclic-nucleotide gated ion channel (CNGC)-based cAMP sensor is used to measure inhibition of isoproterenol-induced CNGC …; type: functional; settings: Homo sapiens
[9] = biological target: Neurotensin receptor type 1 (Homo sapiens, UniProt P30989); type: functional;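 further: Image-based confirmatory dose-response assay measuring agonist activity at NTR1; NTR1-expressing U2OS osteosarcoma cells imaged for beta-arrestin GFP spot formation; agonist potency where compounds increase beta-arrestin recruitment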
[10] = biological target: Serine/threonine-protein phosphatase PP1-alpha catalytic subunit (Homo sapiens, UniProt P62136); assay: inhibition of protein phosphatase 1 activity – biochemical, fluorescence, dose response (AID 2403);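 further: phosphatase turnover of OMFP into fluorescent 3-O-methylfluorescein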
[11] = biological target: Serine/threonine-protein phosphatase (Homo sapiens, UniProt Q9BPW0); assay: Counterscreen for inhibitors of PP1: fluorescence-based biochemical high throughput dose response assay to identify inhibitors of Protein Phosphatase 5 (PP5). [Related pubchem assays: 2034 (Summary (PP5 inhibitors)), 1987 (PP5 inhibitors in singlate), 2235 (PP1 inhibitors in singlate)]
[12] = biological target: T1, Estrogen receptor
[13] = biological target: Bcl-2-like protein 10 (Homo sapiens, UniProt Q9HD36); assay: Bcl-B/TR3 peptide binding disruption – biochemical, fluorescence polarization, FITC-TR3 peptide, selectivity assay for Bfl-1 inhibitor project, primary screen (AID 748);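 further: fluorescence polarization from a fluorescein-labelled TR3 peptide binding purified Bcl-B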
Sequence of Bcl-2-like protein 10 (Q9HD36 whole entry): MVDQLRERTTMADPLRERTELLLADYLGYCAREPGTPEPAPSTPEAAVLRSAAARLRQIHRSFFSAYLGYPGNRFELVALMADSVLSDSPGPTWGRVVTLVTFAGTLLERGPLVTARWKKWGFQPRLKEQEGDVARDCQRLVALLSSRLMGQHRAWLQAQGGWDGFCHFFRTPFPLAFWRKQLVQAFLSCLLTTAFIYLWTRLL

Sequence of Neuropeptide Y receptor type 2 (P49146 whole entry): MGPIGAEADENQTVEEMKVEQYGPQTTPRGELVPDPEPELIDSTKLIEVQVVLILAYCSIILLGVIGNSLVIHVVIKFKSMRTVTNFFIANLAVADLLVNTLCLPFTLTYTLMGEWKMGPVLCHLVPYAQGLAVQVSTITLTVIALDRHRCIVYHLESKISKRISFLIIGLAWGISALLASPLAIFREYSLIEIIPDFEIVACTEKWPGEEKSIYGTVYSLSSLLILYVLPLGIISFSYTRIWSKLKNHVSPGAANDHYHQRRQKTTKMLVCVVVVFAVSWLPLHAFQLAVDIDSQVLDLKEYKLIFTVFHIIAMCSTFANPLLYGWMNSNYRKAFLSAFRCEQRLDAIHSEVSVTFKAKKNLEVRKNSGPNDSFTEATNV
Sequence of Polyadenylate-binding protein 1 (P11940 whole entry): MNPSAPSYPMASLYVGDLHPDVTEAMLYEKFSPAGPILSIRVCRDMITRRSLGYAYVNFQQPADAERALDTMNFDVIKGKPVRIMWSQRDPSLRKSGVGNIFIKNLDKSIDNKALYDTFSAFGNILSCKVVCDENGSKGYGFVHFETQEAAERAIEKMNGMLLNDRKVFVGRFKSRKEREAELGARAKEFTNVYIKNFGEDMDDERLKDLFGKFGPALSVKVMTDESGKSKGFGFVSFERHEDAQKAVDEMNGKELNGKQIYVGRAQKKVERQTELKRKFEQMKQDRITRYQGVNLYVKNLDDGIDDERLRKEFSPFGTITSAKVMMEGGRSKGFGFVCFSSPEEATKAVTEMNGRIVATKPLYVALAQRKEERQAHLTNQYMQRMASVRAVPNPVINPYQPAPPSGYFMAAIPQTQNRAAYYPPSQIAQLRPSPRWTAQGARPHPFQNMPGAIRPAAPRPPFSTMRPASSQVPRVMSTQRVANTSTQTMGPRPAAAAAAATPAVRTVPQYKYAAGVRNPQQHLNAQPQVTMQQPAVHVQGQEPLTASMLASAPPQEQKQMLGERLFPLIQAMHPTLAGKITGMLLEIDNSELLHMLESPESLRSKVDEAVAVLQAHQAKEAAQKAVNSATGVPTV
Sequence of Neuropeptide Y receptor type 1 (P25929 whole entry): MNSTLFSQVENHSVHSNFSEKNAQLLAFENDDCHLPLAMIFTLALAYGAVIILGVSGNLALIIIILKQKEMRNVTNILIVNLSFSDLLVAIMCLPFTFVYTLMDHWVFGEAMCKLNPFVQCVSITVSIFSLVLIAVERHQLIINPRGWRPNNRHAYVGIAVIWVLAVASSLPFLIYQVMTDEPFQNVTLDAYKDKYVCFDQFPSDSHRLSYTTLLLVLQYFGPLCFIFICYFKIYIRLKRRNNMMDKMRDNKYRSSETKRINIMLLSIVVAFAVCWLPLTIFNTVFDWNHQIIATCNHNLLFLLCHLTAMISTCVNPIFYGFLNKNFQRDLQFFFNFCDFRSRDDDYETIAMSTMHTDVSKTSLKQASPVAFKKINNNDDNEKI
Sequence of Serine/threonine-protein phosphatase (Q9BPW0 whole entry): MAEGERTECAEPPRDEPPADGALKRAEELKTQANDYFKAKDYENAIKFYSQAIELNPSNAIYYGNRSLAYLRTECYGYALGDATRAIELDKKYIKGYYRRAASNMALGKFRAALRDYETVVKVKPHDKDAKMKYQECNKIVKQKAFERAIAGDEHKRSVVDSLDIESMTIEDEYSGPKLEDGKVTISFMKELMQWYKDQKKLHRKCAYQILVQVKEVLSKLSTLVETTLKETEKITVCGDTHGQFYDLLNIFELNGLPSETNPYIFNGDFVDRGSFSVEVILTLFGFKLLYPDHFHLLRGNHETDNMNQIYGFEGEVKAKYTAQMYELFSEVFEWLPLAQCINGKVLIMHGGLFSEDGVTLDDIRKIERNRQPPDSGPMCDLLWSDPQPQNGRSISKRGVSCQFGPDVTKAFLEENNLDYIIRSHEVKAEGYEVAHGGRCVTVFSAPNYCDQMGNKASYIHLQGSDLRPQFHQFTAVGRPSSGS
Sequence of Neurotensin receptor type 1 (P30989 whole entry): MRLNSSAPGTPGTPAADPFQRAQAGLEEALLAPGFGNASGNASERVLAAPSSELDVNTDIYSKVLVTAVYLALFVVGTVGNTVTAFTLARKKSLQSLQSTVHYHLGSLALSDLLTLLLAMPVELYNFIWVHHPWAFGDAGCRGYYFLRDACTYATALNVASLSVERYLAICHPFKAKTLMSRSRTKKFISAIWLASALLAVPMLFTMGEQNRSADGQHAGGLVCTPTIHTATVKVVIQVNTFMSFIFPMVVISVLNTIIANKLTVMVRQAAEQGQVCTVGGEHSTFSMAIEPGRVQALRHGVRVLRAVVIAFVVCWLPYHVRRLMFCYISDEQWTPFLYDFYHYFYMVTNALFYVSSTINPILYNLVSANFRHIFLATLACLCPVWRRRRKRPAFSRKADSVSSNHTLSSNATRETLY
Sequence of Serine/threonine-protein phosphatase PP1-alpha catalytic subunit (P62136 whole entry): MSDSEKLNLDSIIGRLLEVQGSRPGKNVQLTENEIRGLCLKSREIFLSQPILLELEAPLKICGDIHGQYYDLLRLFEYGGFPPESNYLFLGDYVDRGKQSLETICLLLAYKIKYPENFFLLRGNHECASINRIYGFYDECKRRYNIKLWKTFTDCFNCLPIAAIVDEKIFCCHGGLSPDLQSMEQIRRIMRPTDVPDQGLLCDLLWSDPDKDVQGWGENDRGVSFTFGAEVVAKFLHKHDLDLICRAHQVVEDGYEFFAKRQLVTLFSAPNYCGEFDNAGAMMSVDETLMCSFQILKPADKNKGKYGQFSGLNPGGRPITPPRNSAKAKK
Sequence of Mothers against decapentaplegic homolog 3 (P84022 whole entry): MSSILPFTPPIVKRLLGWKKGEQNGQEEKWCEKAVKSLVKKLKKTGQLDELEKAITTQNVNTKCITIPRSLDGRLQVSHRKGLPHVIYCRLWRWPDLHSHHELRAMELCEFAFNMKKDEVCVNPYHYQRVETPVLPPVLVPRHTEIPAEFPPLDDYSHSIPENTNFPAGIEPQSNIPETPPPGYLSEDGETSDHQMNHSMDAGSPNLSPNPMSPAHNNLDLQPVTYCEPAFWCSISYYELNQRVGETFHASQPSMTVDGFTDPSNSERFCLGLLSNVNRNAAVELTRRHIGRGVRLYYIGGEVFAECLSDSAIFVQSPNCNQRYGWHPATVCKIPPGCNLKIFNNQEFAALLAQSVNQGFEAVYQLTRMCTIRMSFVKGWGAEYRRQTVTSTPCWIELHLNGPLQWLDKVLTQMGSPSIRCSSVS

CC1NC(C(=O)O)Cc2cc(O)c(O)cc21 (stereo not drawn)
IC50 [1]: > 50 µM (not active)

CCN1C(NCC(C)C)=N[C@@H](c2cccc(C(F)(F)F)c2)C(C(=O)OC)=C1C
IC50 [2]: 10 µM (active)
IC50 [3]: > 100 µM (inactive)

CSc1nc(SC(C)C(=O)O)c2c3c(sc2n1)COC(C)(C)C3 (stereo not drawn)
AC50 [4]: 90.3 µM (active)

O=C(CCCn1c(=S)[nH]c2ccccc2c1=O)N1CCC(c2ccccc2)CC1
IC50 [5]: 50 nM (not active)

CC1CCC(C(C)C)C(OCC(O)CNC(C)c2ccccc2)C1 (stereo not drawn)
EC50 [6]: > 35.4 µM (not active)
EC50 [7]: > 35.4 µM (not active)
IC50 [8]: > 35.4 µM (not active)
EC50 [9]: 21.5 µM (inactive)

CCOC(=O)c1cnc(-n2cc(C)cn2)nc1NCc1ccc2c(c1)OCO2
IC50 [10]: 5.96 µM (active)
IC50 [11]: > 67 µM (not active)

CN(C)S(=O)(=O)N(CC(=O)N(Cc1ccccc1)Cc1ccccc1)c1ccccc1
IC50 [12]: 24.9 µM (active)
IC50 [13]: 36.6 µM (active)
